PubChem BioAssay (NCI)
Where “and” joins values, the source holds several entries; their conditions need not be identical. Equal entries are not always repeated.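 A five-concentration, 48-hour dose response in 96-well plates underlies each endpoint, interpolated linearly between surrounding concentrations. The concentration for 50% growth inhibition is given as GI50. TGI: concentration producing complete growth inhibition.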

Experiments:
Experiment in all cases: NCI tumour cell line growth inhibition, 48 h
DU-145 prostate = system: DU-145 prostate
HS 578T breast = system: HS 578T breast
KM12 colon = system: KM12 colon
M14 melanoma = system: M14 melanoma
NCI/ADR-RES ovarian = system: NCI/ADR-RES ovarian
RPMI-8226 leukemia = system: RPMI-8226 leukemia
SK-MEL-2 melanoma = system: SK-MEL-2 melanoma
SK-MEL-5 melanoma = system: SK-MEL-5 melanoma
SN12C renal = system: SN12C renal
SW-620 colon = system: SW-620 colon

## Cc1ccc(C[P+](c2ccccc2)(c2ccccc2)c2ccccc2)cc1
DU-145 prostate
  GI50: 1.38 µM
  TGI: 43.4 µM
HS 578T breast
  GI50: 0.366 µM
  TGI: 3.11 µM
KM12 colon
  GI50: 0.438 µM
  TGI: 4.5 µM
M14 melanoma
  GI50: 1.32 µM
  TGI: 11.1 µM
NCI/ADR-RES ovarian
  GI50: 37.7 µM
  TGI: > 100 µM
RPMI-8226 leukemia
  GI50: 0.201 µM
  TGI: 18 µM
SK-MEL-2 melanoma
  GI50: 2.12 µM
  TGI: > 100 µM
SK-MEL-5 melanoma
  GI50: 0.321 µM
  TGI: 1.27 µM
SN12C renal
  GI50: 1.79 µM
  TGI: 23.7 µM
SW-620 colon
  GI50: 1.36 µM
  TGI: 12.2 µM

## CCOC(=O)C1=C(c2ccccc2)N(c2ccc(OC)cc2)[C@]2(C#N)C(O)=C(Cl)C(Cl)=C(O)[C@]12C#N
DU-145 prostate
  GI50: 31.9 µM
  TGI: > 100 µM
HS 578T breast
  GI50: 43.5 µM
  TGI: > 100 µM
KM12 colon
  GI50: 18.3 µM
  TGI: 36.5 µM
M14 melanoma
  GI50: 20.9 µM
  TGI: 41.3 µM
NCI/ADR-RES ovarian
  GI50: 15.6 µM
  TGI: 36.5 µM
RPMI-8226 leukemia
  GI50: 1.97 µM
  TGI: 18 µM
SK-MEL-2 melanoma
  GI50: 32.4 µM
  TGI: > 100 µM
SK-MEL-5 melanoma
  GI50: 22.1 µM
  TGI: 51.9 µM
SN12C renal
  GI50: 18.8 µM
  TGI: 36.3 µM
SW-620 colon
  GI50: 20.2 µM
  TGI: 38.4 µM

## Oc1cc(Cl)ccc1Cc1ccc(Cl)cc1O
DU-145 prostate
  GI50: 10.4 µM
  TGI: 23.2 µM
HS 578T breast
  GI50: 7.2 µM
  TGI: 32.8 µM
KM12 colon
  GI50: 14.8 µM
  TGI: 28.1 µM
M14 melanoma
  GI50: 13.5 µM
  TGI: 26.3 µM
NCI/ADR-RES ovarian
  GI50: 8.63 µM
  TGI: 25.4 µM
RPMI-8226 leukemia
  GI50: 6.01 µM
  TGI: > 100 µM
SK-MEL-2 melanoma
  GI50: 14.8 µM
  TGI: 38.8 µM
SK-MEL-5 melanoma
  GI50: 4.48 µM
  TGI: 15.8 µM
SN12C renal
  GI50: 7.92 µM
  TGI: 20.6 µM
SW-620 colon
  GI50: 9.73 µM
  TGI: 21.4 µM

## COc1cc(-c2n/c(=C\c3c(O)[nH]c4ccccc34)cc3c2=Nc2ccccc2-3)cc(OC)c1OC
DU-145 prostate
  GI50: 1.12 µM
  TGI: > 100 µM
HS 578T breast
  GI50: 0.418 µM
  TGI: 68 µM
KM12 colon
  GI50: 2.03 µM
  TGI: 16.4 µM
M14 melanoma
  GI50: 0.785 µM
  TGI: 4.26 µM
NCI/ADR-RES ovarian
  GI50: 1.62 µM
  TGI: > 31.5 µM
RPMI-8226 leukemia
  GI50: 3.09 µM
  TGI: > 26.4 µM
SK-MEL-2 melanoma
  GI50: 1.41 µM
  TGI: 29.6 µM
SK-MEL-5 melanoma
  GI50: 0.289 µM
  TGI: 2.88 µM
SN12C renal
  GI50: 0.523 µM
  TGI: > 100 µM
SW-620 colon
  GI50: 0.449 µM
  TGI: > 100 µM

## N/C(=N\c1nc2ccccc2s1)NC(=O)Nc1cccc2ccccc12
DU-145 prostate
  GI50: 0.356 µM
  TGI: 4.2 µM
HS 578T breast
  GI50: 0.302 µM
  TGI: 5.41 µM
M14 melanoma
  GI50: 0.23 µM
  TGI: > 100 µM
NCI/ADR-RES ovarian
  GI50: 0.144 µM
  TGI: 1.34 µM
RPMI-8226 leukemia
  GI50: 0.418 µM
  TGI: > 100 µM
SK-MEL-2 melanoma
  GI50: 0.582 µM
  TGI: 34 µM
SK-MEL-5 melanoma
  GI50: 0.505 µM
  TGI: > 100 µM
SN12C renal
  GI50: 0.861 µM
  TGI: > 100 µM
SW-620 colon
  GI50: 0.26 µM
  TGI: > 100 µM

## CC(C)=CC1CC(C)C2(CCC3(C)CC4C(C(=O)CC4(C)O)/C(C=O)=C\CC32)O1 (stereo not drawn)
DU-145 prostate
  TGI: 0.267 µM
HS 578T breast
  TGI: 0.421 µM
KM12 colon
  TGI: 0.262 µM
M14 melanoma
  TGI: 0.311 µM
NCI/ADR-RES ovarian
  TGI: 0.443 µM
RPMI-8226 leukemia
  TGI: 0.0613 µM
SK-MEL-2 melanoma
  TGI: 0.316 µM
SK-MEL-5 melanoma
  TGI: 0.588 µM
SN12C renal
  TGI: 0.184 µM

## CCCCCCCCCCCCCCCCn1cc[n+](Cc2ccccc2)c1C
DU-145 prostate
  GI50: 1.07 µM and 0.235 µM
  TGI: 2.3 µM and 1.05 µM
HS 578T breast
  GI50: 3.62 µM
  TGI: > 100 µM
KM12 colon
  GI50: 1.36 µM and 0.176 µM
  TGI: 2.87 µM and 0.407 µM
M14 melanoma
  GI50: 0.425 µM
  TGI: 1.91 µM
NCI/ADR-RES ovarian
  GI50: 8.02 µM and 1.55 µM
  TGI: 48.6 µM and 7.01 µM
RPMI-8226 leukemia
  GI50: 0.104 µM
  TGI: 0.444 µM
SK-MEL-2 melanoma
  GI50: 1.52 µM
  TGI: 3.26 µM
SN12C renal
  GI50: 1.07 µM and 0.156 µM
  TGI: 2.34 µM and 1.17 µM
